Six compounds from DBAASP can be followed below.

Usually MIC stands for the lowest concentration found to suppress growth. Low readings indicate greater potency, high ones weaker potency.

≈ marks a conversion by molar mass, not a printed value. Where “and” joins values, the source holds several entries; their conditions need not be identical. Identical values can stand only once.

Test systems include Ramulariopsis gossypii; Trichoderma asperellum; Fusarium oxysporum; Candida krusei CBS 573; Klebsiella pneumoniae; Vibrio alginolyticus; Escherichia coli; Vibrio fluvialis; Staphylococcus aureus; Aeromonas hydrophila; Streptococcus pyogenes; Vibrio parahaemolyticus.
Holding throughout (test): ≥ marks a high value that may be exact or a test limit, other limits are often not marked, values filed in µg/mL are converted to µM
The test system of assay [1] is Pseudomonas aeruginosa ATCC 15692.
Assay [2] concerns Staphylococcus epidermidis ATCC 12228.
The subject of assay [3] is Proteus vulgaris KCTC 2433.
The test system of assay [4] is Listeria monocytogenes ATCC 3710.
Assay [5] concerns Escherichia coli ATCC 25922.
The test system of assay [6] is Staphylococcus aureus ATCC 29213.
Assay [7] relates to Bacillus subtilis KCTC 1998.
Assay [8] concerns Listeria monocytogenes ATCC 19115.
Assay [9] deals with Staphylococcus aureus CMCC 26003.
Assay [10] concerns Pseudomonas syringae pv. tabaci.
Assay [11] relates to Fusarium oxysporum f.sp. vasinfectum.
The test system of assay [12] is Candida albicans ATCC 90028.
The test system of assay [13] is Bacillus subtilis ATCC 23857.
Assay [14] has as its system Cryptococcus neoformans ATCC 28957.
In assay [15] the test system is Pectobacterium carotovorum.
The test system of assay [16] is Xanthomonas campestris pv. citri.
Assay [17] relates to Candida albicans ATCC 10231.
Assay [18] has as its system Candida parapsilosis CBS 604.
For assay [19], the system named is Saccharomyces cerevisiae SZMC 0644.
In assay [20] the test system is Pseudomonas aeruginosa ATCC 27853.
Assay [21] has as its system Streptococcus iniae KCTC 3657.
For assay [22], the system named is Bacillus cereus ATCC 10876.
Assay [23] concerns Streptococcus agalactiae ATCC 27956.
The test system of assay [24] is Streptococcus dysgalactiae subsp. dysgalactiae ATCC 27957.
For assay [25], the system named is Salmonella enterica subsp. enterica serovar Typhimurium ATCC 14028.
Assay [26] concerns Staphylococcus aureus ATCC 6538.
The subject of assay [27] is Streptococcus equi subsp. zooepidemicus ATCC 43079.
The test system of assay [28] is Staphylococcus aureus ATCC 25923.
For assay [29], the system named is Enterococcus faecalis ATCC 29212.

On to `CC[C@H](C)[C@H](NC(=O)CNC(=O)[C@H](Cc1cnc[nH]1)NC(=O)[C@H](CCCCN)NC(=O)[C@@H](NC(=O)[C@H](CO)NC(=O)CNC(=O)[C@@H](NC(=O)[C@H](Cc1ccccc1)NC(=O)[C@H](CCCN=C(N)N)NC(=O)[C@H](CCCCN)NC(=O)[C@@H](N)Cc1ccccc1)[C@@H](C)CC)C(C)C)C(=O)NCC(=O)N[C@@H](Cc1cnc[nH]1)C(=O)N[C@@H](CC(C)C)C(=O)N[C@H](C(=O)N[C@@H](Cc1cnc[nH]1)C(=O)N[C@@H](Cc1cnc[nH]1)C(=O)N[C@H](C(=O)NCC(=O)N[C@H](C(=O)N[C@@H](C)C(=O)N[C@@H](CC(C)C)C(N)=O)C(C)C)[C@@H](C)CC)C(C)C` [FKRFIGSVKHGIGHLVHHIGVAL], for which the MIC in assay [1] is at least 32 µM; in assay [2] it was 4 µM and 8 µM; in assay [3], 4 µM and 8 µM; in assay [4], 16 µM and 8 µM; in [5] it was 2 µM and 4 µM; in [6], 8 µM (≈ 20.2 µg/mL). For the same compound, the MIC in [7] is 8 µM and 16 µM.

Turning to `CC[C@H](C)[C@H](NC(=O)[C@H](CCCN=C(N)N)NC(=O)[C@H](CCCN=C(N)N)NC(=O)[C@H](Cc1c[nH]c2ccccc12)NC(=O)[C@@H](N)Cc1ccccc1)C(=O)N[C@@H](CCCN=C(N)N)C(=O)N[C@H](C(=O)N[C@H](C(=O)N1CCC[C@H]1C(=O)N[C@H](C(=O)N[C@H](C(=O)N[C@@H](CC(N)=O)C(=O)N1CCC[C@H]1C(=O)N1CCC[C@H]1C(=O)N[C@@H](Cc1ccccc1)C(=O)N[C@@H](CC(C)C)C(=O)N[C@@H](CCC(N)=O)C(=O)N[C@@H](CCC(N)=O)C(=O)N[C@H](C(N)=O)[C@@H](C)O)C(C)C)C(C)C)[C@@H](C)O)C(C)C` [FWRRIRVTPVVNPPFLQQT], the MIC in assay [8] and in assay [9] was at least 109 µM in each case.

Regarding `CC(C)C[C@H](NC(=O)[C@H](C)NC(=O)[C@H](CCCN=C(N)N)NC(=O)[C@@H](NC(=O)[C@H](CCC(N)=O)NC(=O)[C@H](CCCCN)NC(=O)[C@H](CCCCN)NC(=O)[C@H](C)NC(=O)[C@H](CC(C)C)NC(=O)[C@H](CCCCN)NC(=O)[C@H](C)NC(=O)CN)C(C)C)C(=O)NCC(=O)N[C@@H](CCCCN)C(=O)N[C@@H](Cc1ccccc1)C(=O)N[C@@H](Cc1ccccc1)C(=O)N[C@@H](CO)C(=O)N[C@@H](Cc1ccccc1)C(N)=O` [GAKLAKKQVRALGKFFSF], the MIC in the assay with Ramulariopsis gossypii is 16 µM (≈ 31.9 µg/mL); in the assay on Trichoderma asperellum, at least 128 µM; in [10], 8 µM (≈ 16 µg/mL); in assay [11] it was at least 64 µM; in [12] it was at least 128 µM; in [13], 8 µM (≈ 16 µg/mL). Moreover, the MIC in assay [14] was at least 64 µM; in assay [15] it was at least 32 µM; in [5], 16 µM (≈ 31.9 µg/mL); in assay [16], at least 32 µM; against Fusarium oxysporum, at least 256 µM.

For the compound `CC[C@H](C)[C@H](NC(=O)[C@@H](NC(=O)[C@H](CCCCN)NC(=O)[C@H](CO)NC(=O)[C@H](CCCCN)NC(=O)[C@H](CC(=O)O)NC(=O)[C@H](CO)NC(=O)[C@@H]1CCCN1C(=O)CNC(=O)[C@H](CO)NC(=O)[C@H](Cc1cnc[nH]1)NC(=O)[C@H](Cc1ccc(O)cc1)NC(=O)[C@@H](N)CCCCN)C(C)C)C(=O)N[C@@H](CO)C(=O)O` [KYHSGPSDKSKVIS], the MIC in assay [17] was over 65.2 µM; against Candida krusei CBS 573 it was at least 65.2 µM; in assay [18], at least 65.2 µM; in assay [19] it was at least 65.2 µM.

For the compound `CC[C@H](C)[C@H](NC(=O)[C@H](CCCCN)NC(=O)[C@H](CCC(N)=O)NC(=O)[C@H](CC(C)C)NC(=O)CNC(=O)[C@H](CCCCN)NC(=O)CNC(=O)[C@H](CC(C)C)NC(=O)[C@H](CCCCN)NC(=O)[C@H](CCCCN)NC(=O)[C@H](CCCN=C(N)N)NC(=O)[C@H](C)NC(=O)[C@H](CCCCN)NC(=O)[C@H](CCCN=C(N)N)NC(=O)[C@H](Cc1ccccc1)NC(=O)[C@H](Cc1ccccc1)NC(=O)[C@H](CCCCN)NC(=O)[C@@H](N)CO)C(=O)N[C@@H](CCCCN)C(=O)N[C@@H](CC(N)=O)C(=O)N[C@H](C(=O)N[C@@H](CC(C)C)C(=O)N[C@@H](CCCN=C(N)N)C(=O)N[C@@H](CCCCN)C(=O)N[C@@H](Cc1ccc(O)cc1)C(=O)O)C(C)C` [SKFFRKARKKLGKGLQKIKNVLRKY], the MIC in assay [20] worked out at 0.329 µM (≈ 1 µg/mL); in assay [21], 21.1 µM (≈ 64 µg/mL); in [22], 21.1 µM (≈ 64 µg/mL); in assay [23], 13.2 µM (≈ 40.1 µg/mL); against Klebsiella pneumoniae, 1.32 µM (≈ 4 µg/mL); in [24], 4.9 µM (≈ 14.9 µg/mL). Besides, the MIC was 1.65 µM (≈ 5 µg/mL) in assay [25]; 0.264 µM (≈ 0.8 µg/mL) in assay [5]; 13.2 µM (≈ 40.1 µg/mL) in assay [26]; 4.9 µM (≈ 14.9 µg/mL) in assay [27]; 24.7 µM (≈ 75 µg/mL) in assay [28]; 13.2 µM (≈ 40.1 µg/mL) in assay [29].

For the compound `CC[C@H](C)[C@H](NC(=O)[C@H](CCCCN)NC(=O)[C@H](Cc1cnc[nH]1)NC(=O)[C@H](CC(C)C)NC(=O)[C@H](CC(C)C)NC(=O)CNC(=O)[C@H](CC(N)=O)NC(=O)[C@@H](N)C(C)C)C(=O)N[C@@H](Cc1ccc(O)cc1)C(=O)NCC(=O)N[C@@H](CC(N)=O)C(=O)N[C@H](C(=O)N[C@@H](CCCN=C(N)N)C(=O)N[C@@H](Cc1ccc(O)cc1)C(=O)N[C@@H](CO)C(=O)O)[C@@H](C)CC` [VNGLLHKIYGNIRYS], the MIC is at least 143 µM in the assay with Vibrio alginolyticus; 8.93 µM (≈ 15.6 µg/mL) against Escherichia coli; at least 143 µM against Vibrio fluvialis; over 143 µM against Staphylococcus aureus; 8.93 µM (≈ 15.6 µg/mL) against Aeromonas hydrophila; 8.93 µM (≈ 15.6 µg/mL) against Streptococcus pyogenes. Also, the MIC against Vibrio parahaemolyticus was at least 35.8 µM.
